Experiments:
[1] = Phase 2 study of obicetrapib as adjunct to high-intensity statin therapy: safety and tolerability (adverse events); format: in vivo, human; conditions: for AEs, total: subjects, number (%): on top of high-intensity statin; for Subjects reporting treatment-emergent adverse events: safety population
Protocol: Patients were randomly assigned to receive one of the three treatments investigative treatments. All treatments were to be taken once daily with food for 8 weeks. Safety was assessed throughout the trial by monitoring adverse events and concomitant medication use, 12-lead electrocardiograms (ECGs), vital signs, laboratory safety assessments and physical examinations. Additional assessments included salivary cortisol, plasma aldosterone, high-sensitivity C-reactive protein (hsCRP) and endothelin 1.
Safety and tolerability profiles of obicetrapib assessed by clinical laboratory values and incidence of adverse events (AEs).
(§1) The primary outcome measure was LDL-C (percent change). Secondary outcome measures included ApoB, Non-HDL-C and HDL-C (percent change). The Intent-to-Treat (ITT) Population included all participants randomized into the study. The Modified ITT (mITT) Population included all participants in the ITT Population who receive at least 1 dose of any study drug and have a baseline value for the LDL-C assessment. The Safety Population included all participants who receive at least 1 dose of any study drug. The mITT Population was the primary population for the efficacy analyses. The primary efficacy analysis of the percent change in LDL-C was performed using a mixed model for repeated measures (MMRM) approach. In order to maintain the overall Type I error rate, the secondary efficacy endpoints were tested sequentially at the 0.05 significance level according to the pre-specified order of hierarchy. All safety endpoints were summarized descriptively. No statistical inference was applied to the safety endpoints. Plasma obicetrapib concentrations were summarized with descriptive statistics based on the […].

[2] = Phase 2 study: PK follow-up, plasma obicetrapib concentrations after end of treatment; format: in vivo, human
Protocol: The screening period for this study took up to 2-weeks. Afterwards patients were randomized to placebo, 5 mg obicetrapib or 10 mg obicetrapib for an 8-week treatment period. After the treatment period, patients continued for a 4-week safety follow-up and a 15-week PK follow-up.
as §1

[3] = either obicetrapib treatment group (5 mg, 10 mg)

CCOC(=O)N1c2ccc(C(F)(F)F)cc2[C@@H](N(Cc2cc(C(F)(F)F)cc(C(F)(F)F)c2)c2ncc(OCCCC(=O)O)cn2)C[C@H]1CC [Obicetrapib, (2R,4S)-4-{[3,5-bis(trifluoromethyl)benzyl]-[5-(3-carboxypropoxy)pyrimidin-2-yl]amino}-2-ethyl-6-trifluoromethyl-3,4-dihydro-2H-quinoline-1-carboxylic acid ethyl ester]
Tolerability and safety profile ([1]; 5 mg and 10 mg on top of high intensity statin therapy): well tolerated with a safety profile similar to placebo
Subjects reporting events considered study drug related ([1]; 5 mg group): 2 subjects
AEs, related: number of events ([1]; 5 mg group (N = 40)): 2 events
AEs, related: subjects, number (%) ([1]; 5 mg group (N = 40)): 2 (5.0)
AEs, severe ([1]; 5 mg group (N = 40)): 0
AEs, total: number of events ([1]; 5 mg group (N = 40)): 24 events
Deaths ([1]; 5 mg group (N = 40)): 0
SAEs, related ([1]; 5 mg group (N = 40)): 0
SAEs, total ([1]; 5 mg group (N = 40)): 0
TEAEs leading to discontinuation of study drug ([1]; 5 mg group (N = 40)): 0
TESAEs leading to discontinuation of study ([1]; 5 mg group (N = 40)): 0
AEs, total: subjects, number (%) ([1]; 5 mg group (N = 40)): 13 (32.5)
Adverse events: Basal cell carcinoma ([1]; 5 mg group (n = 40)): 0 (0.0) n (%)
Adverse events: Fatigue ([1]; 5 mg group (n = 40)): 2 (5.0) n (%)
Adverse events: Gastrointestinal disorders ([1]; 5 mg group (n = 40)): 3 (7.5) n (%)
Adverse events: General disorders and administration site conditions ([1]; 5 mg group (n = 40)): 3 (7.5) n (%)
Adverse events: Hypertension ([1]; 5 mg group (n = 40)): 2 (5.0) n (%)
Adverse events: Infections and infestations ([1]; 5 mg group (n = 40)): 1 (2.5) n (%)
Adverse events: Injury, poisoning and procedural complications ([1]; 5 mg group (n = 40)): 3 (7.5) n (%)
Adverse events: Investigations ([1]; 5 mg group (n = 40)): 2 (5.0) n (%)
Adverse events: Metabolism and nutrition disorders ([1]; 5 mg group (n = 40)): 2 (5.0) n (%)
Adverse events: Muscle spasms ([1]; 5 mg group (n = 40)): 0 (0.0) n (%)
Adverse events: Musculoskeletal and connective tissue disorders ([1]; 5 mg group (n = 40)): 4 (10.0) n (%)
Adverse events: Nausea ([1]; 5 mg group (n = 40)): 1 (2.5) n (%)
Adverse events: Neoplasms benign, malignant and unspecified (including cysts and polyps) ([1]; 5 mg group (n = 40)): 0 (0.0) n (%)
Adverse events: Nervous system disorders ([1]; 5 mg group (n = 40)): 2 (5.0) n (%)
Adverse events: Respiratory, thoracic and mediastinal disorders ([1]; 5 mg group (n = 40)): 2 (5.0) n (%)
Adverse events: Type 2 diabetes mellitus ([1]; 5 mg group (n = 40)): 2 (5.0) n (%)
Adverse events: Vascular disorders ([1]; 5 mg group (n = 40)): 2 (5.0) n (%)
Subjects reporting treatment-emergent adverse events ([1]; 5 mg group): 15 subjects
Subjects reporting events considered study drug related ([1]; 10 mg group): 1 subject
AEs, related: number of events ([1]; 10 mg group (N = 40)): 1 events
AEs, related: subjects, number (%) ([1]; 10 mg group (N = 40)): 1 (2.5)
AEs, severe ([1]; 10 mg group (N = 40)): 0
AEs, total: number of events ([1]; 10 mg group (N = 40)): 11 events
Deaths ([1]; 10 mg group (N = 40)): 0
SAEs, related ([1]; 10 mg group (N = 40)): 0
SAEs, total ([1]; 10 mg group (N = 40)): 0
TEAEs leading to discontinuation of study drug ([1]; 10 mg group (N = 40)): 0
TESAEs leading to discontinuation of study ([1]; 10 mg group (N = 40)): 0
AEs, total: subjects, number (%) ([1]; 10 mg group (N = 40)): 8 (20.0)
Adverse events: Basal cell carcinoma ([1]; 10 mg group (n = 40)): 0 (0.0) n (%)
Adverse events: Fatigue ([1]; 10 mg group (n = 40)): 1 (2.5) n (%)
Adverse events: Gastrointestinal disorders ([1]; 10 mg group (n = 40)): 0 (0.0) n (%)
Adverse events: General disorders and administration site conditions ([1]; 10 mg group (n = 40)): 2 (5.0) n (%)
Adverse events: Hypertension ([1]; 10 mg group (n = 40)): 0 (0.0) n (%)
Adverse events: Infections and infestations ([1]; 10 mg group (n = 40)): 0 (0.0) n (%)
Adverse events: Injury, poisoning and procedural complications ([1]; 10 mg group (n = 40)): 1 (2.5) n (%)
Adverse events: Investigations ([1]; 10 mg group (n = 40)): 0 (0.0) n (%)
Adverse events: Metabolism and nutrition disorders ([1]; 10 mg group (n = 40)): 0 (0.0) n (%)
Adverse events: Muscle spasms ([1]; 10 mg group (n = 40)): 0 (0.0) n (%)
Adverse events: Musculoskeletal and connective tissue disorders ([1]; 10 mg group (n = 40)): 4 (10.0) n (%)
Adverse events: Nausea ([1]; 10 mg group (n = 40)): 0 (0.0) n (%)
Adverse events: Neoplasms benign, malignant and unspecified (including cysts and polyps) ([1]; 10 mg group (n = 40)): 0 (0.0) n (%)
Adverse events: Nervous system disorders ([1]; 10 mg group (n = 40)): 2 (5.0) n (%)
Adverse events: Respiratory, thoracic and mediastinal disorders ([1]; 10 mg group (n = 40)): 0 (0.0) n (%)
Adverse events: Type 2 diabetes mellitus ([1]; 10 mg group (n = 40)): 0 (0.0) n (%)
Adverse events: Vascular disorders ([1]; 10 mg group (n = 40)): 0 (0.0) n (%)
Subjects reporting treatment-emergent adverse events ([1]; 10 mg group): 8 subjects
Laboratory parameters (chemistry, hematology, urinalysis) compared with placebo [1, 3]: no clinically meaningful shifts in chemistry, hematology or urinalysis parameters
Vital signs compared with placebo [1, 3]: no changes in vital signs
Plasma obicetrapib levels, median decrease after end-of-treatment ([2]; 5 mg group, 4 weeks after end-of-treatment): 92%
Plasma obicetrapib levels, median decrease after end-of-treatment ([2]; 5 mg group, 8 weeks after end-of-treatment): 98%
Plasma obicetrapib levels, median decrease after end-of-treatment ([2]; 5 mg group, 15 weeks after end-of-treatment): 99%
Plasma obicetrapib levels, median decrease after end-of-treatment ([2]; 10 mg group, 4 weeks after end-of-treatment): 93%
Plasma obicetrapib levels, median decrease after end-of-treatment ([2]; 10 mg group, 8 weeks after end-of-treatment): 98%
Plasma obicetrapib levels, median decrease after end-of-treatment ([2]; 10 mg group, 15 weeks after end-of-treatment): 99%
